Reference: patent US9421209B2, “Kinase modulators” (Rhizen Pharmaceuticals SA, priority 2009, dated 2016)
One block for each compound: values may come before it.

Experiments:
P110β = P110β (Homo sapiens, UniProt P42338); assay: Fluorescent (HTRF) determination of PI3K enzyme activity, β isoform; format: biochemical
Source text: Assay 1: Fluorescent determination of PI3Kinase Kinase enzyme activity
Phosphoinositide 3 kinases (PI3K) belong to a class of lipid kinases that play a critical role in the regulation of several key cellular processes. The PI3K are capable of phosphorylating the 3-hydroxy position of phosphoinositols thereby generating second messengers involved in downstream signalling events. The homogenous time resolved fluorescence (HTRF) assay allows detection of 3,4,5-triphosphate (PIP3) formed as a result of phosphorylation of phosphotidylinositol 4,5-biphosphate (PIP2) by PI3K isoforms such as α, β, γ or δ.
PI3K isoform activity for α, β, γ or δ was determined using a PI3K human HTRF™ Assay Kit (Millipore, Billerica, Mass.) with modifications. All incubations were carried out at room temperature. Briefly, 0.5 μl of 40× inhibitor (in 100% DMSO) or 100% DMSO were added to each well of a 384-well black plate (Greiner Bio-One, Monroe, N.C.) containing 14.5 μl 1× reaction buffer/PIP2 (10 mM MgCl2, 5 mM DTT, 1.38 μM PIP2) mix with or without enzyme and incubated for 10 min. After the initial incubation, 5 μl/well of 400 μM ATP was added and incubated for an additional 30 minutes. Reaction was terminated by adding 5 μl/well stop solution (Millipore, Billerica, Mass.). Five microliters of detection mix (Millipore, Billerica, Mass.) were then added to each well and was incubated for 6-18 h in the dark. HRTF ratio was measured on a microplate reader (BMG Labtech., Germany) at an excitation wavelength of 337 nm and emission wavelengths of 665 and 620 nm with an integration time of […]. Data were analyzed using Graphpad Prism (Graphpad software; San Diego Calif.) for IC50 determination. Percent inhibition was calculated based on the values for the blank and enzyme controls. The results are provided below in Table 2 & 3.

P110 δ/Pi3K δ = P110 δ/Pi3K δ (Homo sapiens, UniProt O00329); assay: Fluorescent (HTRF) determination of PI3K enzyme activity, δ isoform; format: biochemical; set-up: inhibition: dose or concentration left out as unconfirmed; conditions: for IC50: read-out: P110 δ/ Pi3K δ IC 50 nM
Procedure, shortened: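 HTRF kit detecting PIP3 formed from PIP2 by human PI3Kδ, at room temperature. Reaction started with 400 μM ATP (addition concentration) for 30 min, then stopped, and detection mix incubated 6–18 h in the dark. Percent inhibition taken against blank and enzyme controls, and IC50 fitted.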

Chain of P110 δ/Pi3K δ (O00329 whole entry, canonical isoform): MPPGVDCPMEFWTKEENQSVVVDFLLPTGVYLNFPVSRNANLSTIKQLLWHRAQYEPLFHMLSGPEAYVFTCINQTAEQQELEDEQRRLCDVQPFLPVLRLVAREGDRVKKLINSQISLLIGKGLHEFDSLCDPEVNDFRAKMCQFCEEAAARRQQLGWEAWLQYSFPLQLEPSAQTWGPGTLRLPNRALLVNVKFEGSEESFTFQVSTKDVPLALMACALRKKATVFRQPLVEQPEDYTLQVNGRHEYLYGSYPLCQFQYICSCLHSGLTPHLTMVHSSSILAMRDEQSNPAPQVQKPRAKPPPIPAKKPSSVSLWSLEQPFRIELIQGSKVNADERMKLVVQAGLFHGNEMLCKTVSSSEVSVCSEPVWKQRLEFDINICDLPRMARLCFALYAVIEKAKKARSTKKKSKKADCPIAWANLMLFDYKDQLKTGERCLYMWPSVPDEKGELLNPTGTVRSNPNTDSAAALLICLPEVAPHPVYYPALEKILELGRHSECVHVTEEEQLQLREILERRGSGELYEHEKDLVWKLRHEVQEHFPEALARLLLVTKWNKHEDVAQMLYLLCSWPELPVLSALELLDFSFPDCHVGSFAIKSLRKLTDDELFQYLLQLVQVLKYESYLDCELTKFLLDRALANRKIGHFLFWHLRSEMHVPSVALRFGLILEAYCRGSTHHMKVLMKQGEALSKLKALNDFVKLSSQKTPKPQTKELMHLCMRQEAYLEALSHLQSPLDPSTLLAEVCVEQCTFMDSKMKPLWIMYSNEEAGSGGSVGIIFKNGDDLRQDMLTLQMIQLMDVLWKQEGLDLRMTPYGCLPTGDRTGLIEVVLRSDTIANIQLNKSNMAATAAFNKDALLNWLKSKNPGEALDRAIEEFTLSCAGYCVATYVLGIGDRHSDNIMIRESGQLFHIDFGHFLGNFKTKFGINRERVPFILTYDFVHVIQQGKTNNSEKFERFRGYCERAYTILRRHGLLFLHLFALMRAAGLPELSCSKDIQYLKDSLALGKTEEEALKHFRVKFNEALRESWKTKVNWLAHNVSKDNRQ
Chain of P110 δ/Pi3K δ (P27986 whole entry partner, canonical isoform): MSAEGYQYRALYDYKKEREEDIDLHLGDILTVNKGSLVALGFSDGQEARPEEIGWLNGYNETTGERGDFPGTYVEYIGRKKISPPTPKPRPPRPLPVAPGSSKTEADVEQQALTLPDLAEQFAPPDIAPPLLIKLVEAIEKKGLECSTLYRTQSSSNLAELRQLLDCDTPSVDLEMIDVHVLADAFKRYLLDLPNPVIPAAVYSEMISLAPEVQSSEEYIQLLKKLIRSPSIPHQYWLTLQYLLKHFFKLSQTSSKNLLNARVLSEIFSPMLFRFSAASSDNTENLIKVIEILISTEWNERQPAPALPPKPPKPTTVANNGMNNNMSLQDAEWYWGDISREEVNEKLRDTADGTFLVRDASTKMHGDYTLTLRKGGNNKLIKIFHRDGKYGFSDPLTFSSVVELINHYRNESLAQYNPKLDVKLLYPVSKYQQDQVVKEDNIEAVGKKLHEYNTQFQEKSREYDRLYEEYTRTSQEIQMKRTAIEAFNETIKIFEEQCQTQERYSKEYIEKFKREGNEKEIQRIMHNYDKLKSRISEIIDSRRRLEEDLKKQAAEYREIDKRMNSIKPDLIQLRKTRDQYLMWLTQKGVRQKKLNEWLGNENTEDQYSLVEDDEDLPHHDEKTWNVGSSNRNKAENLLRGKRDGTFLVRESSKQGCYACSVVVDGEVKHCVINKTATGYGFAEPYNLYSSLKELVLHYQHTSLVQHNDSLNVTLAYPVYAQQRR
Chain of P110β (P42338 whole entry, canonical isoform): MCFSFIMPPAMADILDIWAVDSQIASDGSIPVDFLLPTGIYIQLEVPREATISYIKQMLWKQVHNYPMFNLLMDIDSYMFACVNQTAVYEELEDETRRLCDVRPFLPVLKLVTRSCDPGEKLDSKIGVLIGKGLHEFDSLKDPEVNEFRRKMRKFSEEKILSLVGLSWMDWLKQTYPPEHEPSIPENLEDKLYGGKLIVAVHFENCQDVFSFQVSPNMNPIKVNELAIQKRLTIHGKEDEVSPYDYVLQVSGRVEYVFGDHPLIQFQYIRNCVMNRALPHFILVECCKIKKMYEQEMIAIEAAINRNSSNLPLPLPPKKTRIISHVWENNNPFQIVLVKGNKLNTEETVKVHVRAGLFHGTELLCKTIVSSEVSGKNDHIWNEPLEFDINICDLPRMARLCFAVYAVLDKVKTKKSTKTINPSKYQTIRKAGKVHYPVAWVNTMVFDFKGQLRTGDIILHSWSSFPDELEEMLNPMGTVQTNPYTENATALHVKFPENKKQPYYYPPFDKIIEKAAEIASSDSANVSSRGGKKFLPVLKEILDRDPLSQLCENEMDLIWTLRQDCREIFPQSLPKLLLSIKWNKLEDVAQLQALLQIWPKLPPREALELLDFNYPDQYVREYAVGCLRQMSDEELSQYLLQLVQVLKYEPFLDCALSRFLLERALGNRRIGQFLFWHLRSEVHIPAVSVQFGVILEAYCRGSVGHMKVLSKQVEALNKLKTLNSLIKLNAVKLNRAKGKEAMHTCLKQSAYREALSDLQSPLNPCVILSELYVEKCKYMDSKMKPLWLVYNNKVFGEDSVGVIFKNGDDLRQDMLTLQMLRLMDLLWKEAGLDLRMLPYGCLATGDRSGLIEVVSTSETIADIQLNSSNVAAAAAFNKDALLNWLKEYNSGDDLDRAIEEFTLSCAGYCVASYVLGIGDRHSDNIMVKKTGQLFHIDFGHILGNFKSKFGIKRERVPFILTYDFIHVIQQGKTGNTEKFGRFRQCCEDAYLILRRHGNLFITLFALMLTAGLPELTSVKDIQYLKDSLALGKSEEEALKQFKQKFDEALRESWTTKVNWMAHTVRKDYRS
Chain of P110β (P27986 whole entry partner, canonical isoform): as the sequence (P27986 whole entry partner, canonical isoform) above

SMILES: Cc1c[nH]c2cc(-c3nn(C(C)c4oc5ccccc5c(=O)c4-c4cccc(F)c4)c4ncnc(N)c34)ccc12 (centres unmarked) [Example 117, 2-(1-(4-amino-3-(3-methyl-1H-indol-6-yl)-1H-pyrazolo[3,4-d]pyrimidin-1-yl)ethyl)-3-(3-fluorophenyl)-4H-chromen-4-one]
% inhibition (1 μM) P110β (P110β): + (+ is less than equal to 25% inhibition at 1 μM) | melting point: 262 to 265 °C | P110 δ/ Pi3K δ % inhibition* (P110 δ/Pi3K δ; @ 0.3 uM): ++ (++ is less than equal to 100% inhibition but more than equal to 50% at 1 μM)

SMILES: O=c1c(-c2cccc(F)c2)c(CNc2ncnc3[nH]cnc23)oc2ccc(F)cc12 [Example 122, 2-((9H-purin-6-ylamino)methyl)-6-fluoro-3-(3-fluorophenyl)-4H-chromen-4-one]
inhibition at 1 µM (P110β): 50 to 100% | melting point: 229 to 232 °C | inhibition (P110 δ/Pi3K δ): < 50%

SMILES: O=c1c(-c2ccccc2)c(CNc2ncnc3[nH]cnc23)oc2ccc(F)cc12 [Example 123, 2-((9H-purin-6-ylamino)methyl)-6-fluoro-3-phenyl-4H-chromen-4-one]
inhibition at 1 µM (P110β): < 25% | melting point: 183 to 186 °C | inhibition (P110 δ/Pi3K δ): < 50%

SMILES: CC(c1oc2ccccc2c(=O)c1-c1cccc(F)c1)n1nc(-c2cnn(Cc3ccccc3)c2)c2c(N)ncnc21 (centres unmarked) [Example 134, 2-(1-(4-amino-3-(1-benzyl-1H-pyrazol-4-yl)-1H-pyrazolo[3,4-d]pyrimidin-1-yl)ethyl)-3-(3-fluorophenyl)-4H-chromen-4-one]
inhibition at 1 µM (P110β): 25 to 50% | melting point: 140 to 142 °C | inhibition (P110 δ/Pi3K δ): < 50%

SMILES: Cc1cc(-c2nn(C(C)c3oc4ccccc4c(=O)c3-c3cccc(F)c3)c3ncnc(N)c23)ccn1 (centres unmarked) [Example 135, 2-(1-(4-amino-3-(2-methylpyridin-4-yl)-1H-pyrazolo[3,4-d]pyrimidin-1-yl)ethyl)-3-(3-fluorophenyl)-4H-chromen-4-one]
inhibition at 1 µM (P110β): 25 to 50% | melting point: 266 to 268 °C | inhibition (P110 δ/Pi3K δ): < 50%

SMILES: CC(c1oc2ccccc2c(=O)c1-c1cccc(F)c1)n1nc(-c2ccc3c(c2)OCCCO3)c2c(N)ncnc21 (centres unmarked) [Example 136, 2-(1-(4-amino-3-(3,4-dihydro-2H-benzo[b][1,4]dioxepin-7-yl)-1H-pyrazolo[3,4-d]pyrimidin-1-yl)ethyl)-3-(3-fluorophenyl)-4H-chromen-4-one]
inhibition at 1 µM (P110β): 25 to 50% | melting point: 234 to 237 °C | inhibition (P110 δ/Pi3K δ): < 50%

SMILES: CC(c1oc2ccccc2c(=O)c1-c1cccc(F)c1)n1nc(-c2ccc(N3CCOCC3)nc2)c2c(N)ncnc21 (centres unmarked) [Example 137, 2-(1-(4-amino-3-(6-morpholinopyridin-3-yl)-1H-pyrazolo[3,4-d]pyrimidin-1-yl)ethyl)-3-(3-fluorophenyl)-4H-chromen-4-one]
inhibition at 1 µM (P110β): 25 to 50% | melting point: 269 to 271 °C | inhibition (P110 δ/Pi3K δ): < 50%

SMILES: CC(C)Oc1ccc(-c2nn(C(C)c3oc4ccccc4c(=O)c3-c3cccc(F)c3)c3ncnc(N)c23)cc1 (centres unmarked) [Example 144, 2-(1-(4-amino-3-(4-isopropoxyphenyl)-1H-pyrazolo[3,4-d]pyrimidin-1-yl)ethyl)-3-(3-fluorophenyl)-4H-chromen-4-one]
inhibition at 1 µM (P110β): 50 to 100% | melting point: 224 to 226 °C | inhibition (P110 δ/Pi3K δ): 50 to 100% | IC50 (P110 δ/Pi3K δ): < 250 nM

SMILES: CC(c1oc2ccccc2c(=O)c1-c1cccc(F)c1)n1nc(-c2ccc(OC(F)(F)F)cc2)c2c(N)ncnc21 (centres unmarked) [Example 145, 2-(1-(4-amino-3-(4-(trifluoromethoxy)phenyl)-1H-pyrazolo[3,4-d]pyrimidin-1-yl)ethyl)-3-(3-fluorophenyl)-4H-chromen-4-one]
inhibition at 1 µM (P110β): 25 to 50% | melting point: 224 to 226 °C | inhibition (P110 δ/Pi3K δ): < 50%

SMILES: CC(=O)c1ccc(-c2nn(C(C)c3oc4ccccc4c(=O)c3-c3cccc(F)c3)c3ncnc(N)c23)cc1 (centres unmarked) [Example 146, 2-(1-(3-(4-acetylphenyl)-4-amino-1H-pyrazolo[3,4-d]pyrimidin-1-yl)ethyl)-3-(3-fluorophenyl)-4H-chromen-4-one]
inhibition at 1 µM (P110β): < 25% | melting point: 218 to 221 °C | inhibition (P110 δ/Pi3K δ): 50 to 100%

More lines, now with the values ahead:

inhibition at 1 µM (P110β): 25 to 50% | melting point: 176 to 178 °C | inhibition (P110 δ/Pi3K δ): < 50%
SMILES: CC(c1oc2ccccc2c(=O)c1-c1cccc(F)c1)n1nc(-c2ccc(OCc3ccccc3)cc2)c2c(N)ncnc21 (centres unmarked) [Example 147, 2-(1-(4-amino-3-(4-(benzyloxy)phenyl)-1H-pyrazolo[3,4-d]pyrimidin-1-yl)ethyl)-3-(3-fluorophenyl)-4H-chromen-4-one]

inhibition at 1 µM (P110β): 50 to 100% | melting point: 214 to 217 °C | inhibition (P110 δ/Pi3K δ): 50 to 100%
SMILES: CC(c1oc2ccccc2c(=O)c1-c1cccc(F)c1)n1nc(-c2ccc(N(C)C)cc2)c2c(N)ncnc21 (centres unmarked) [Example 148, 2-(1-(4-amino-3-(4-(dimethylamino)phenyl)-1H-pyrazolo[3,4-d]pyrimidin-1-yl)ethyl)-3-(3-fluorophenyl)-4H-chromen-4-one]

inhibition at 1 µM (P110β): 25 to 50% | melting point: 259 to 262 °C | inhibition (P110 δ/Pi3K δ): < 50%
SMILES: CC(c1oc2ccccc2c(=O)c1-c1cccc(F)c1)n1nc(-c2ccc(S(C)(=O)=O)cc2)c2c(N)ncnc21 (centres unmarked) [Example 149, 2-(1-(4-amino-3-(4-(methylsulfonyl)phenyl)-1H-pyrazolo[3,4-d]pyrimidin-1-yl)ethyl)-3-(3-fluorophenyl)-4H-chromen-4-one]

inhibition at 1 µM (P110β): 25 to 50% | melting point: 162 to 165 °C | inhibition (P110 δ/Pi3K δ): < 50%
SMILES: CCOc1cccc(-c2nn(C(C)c3oc4ccccc4c(=O)c3-c3cccc(F)c3)c3ncnc(N)c23)c1 (centres unmarked) [Example 150, 2-(1-(4-amino-3-(3-ethoxyphenyl)-1H-pyrazolo[3,4-d]pyrimidin-1-yl)ethyl)-3-(3-fluorophenyl)-4H-chromen-4-one]

inhibition at 1 µM (P110β): 25 to 50% | melting point: 242 to 245 °C | inhibition (P110 δ/Pi3K δ): 50 to 100% | IC50 (P110 δ/Pi3K δ): < 250 nM
SMILES: CC(c1oc2ccccc2c(=O)c1-c1cccc(F)c1)n1nc(-c2cc3ccccc3s2)c2c(N)ncnc21 (centres unmarked) [Example 151, 2-(1-(4-amino-3-(benzo[b]thiophen-2-yl)-1H-pyrazolo[3,4-d]pyrimidin-1-yl)ethyl)-3-(3-fluorophenyl)-4H-chromen-4-one]

inhibition at 1 µM (P110β): < 25% | melting point: 226 to 229 °C | inhibition (P110 δ/Pi3K δ): < 50%
SMILES: CC(c1oc2ccccc2c(=O)c1-c1cccc(F)c1)n1nc(-c2ccc(Cl)s2)c2c(N)ncnc21 (centres unmarked) [Example 152, 2-(1-(4-amino-3-(5-chlorothiophen-2-yl)-1H-pyrazolo[3,4-d]pyrimidin-1-yl)ethyl)-3-(3-fluorophenyl)-4H-chromen-4-one]

inhibition at 1 µM (P110β): < 25% | melting point: 218 to 222 °C | inhibition (P110 δ/Pi3K δ): < 50%
SMILES: Cc1noc(C)c1-c1nn(C(C)c2oc3ccccc3c(=O)c2-c2cccc(F)c2)c2ncnc(N)c12 (centres unmarked) [Example 153, 2-(1-(4-amino-3-(3,5-dimethylisoxazol-4-yl)-1H-pyrazolo[3,4-d]pyrimidin-1-yl)ethyl)-3-(3-fluorophenyl)-4H-chromen-4-one]

inhibition at 1 µM (P110β): < 25% | melting point: 178 to 182 °C | inhibition (P110 δ/Pi3K δ): < 50%
SMILES: CCCOc1cccc(-c2nn(C(C)c3oc4ccccc4c(=O)c3-c3cccc(F)c3)c3ncnc(N)c23)c1 (centres unmarked) [Example 154, 2-(1-(4-amino-3-(3-propoxyphenyl)-1H-pyrazolo[3,4-d]pyrimidin-1-yl)ethyl)-3-(3-fluorophenyl)-4H-chromen-4-one]
